Patent US20050159481A1, “Medicinal composition for improving angiotension-regulating function of blood vessel endothelium” (CHUGAI SEIYAKU KABUSHIKI KAISHA, priority 2002, published 2005)

Tested on: rat mesenteric artery sections damaged by oxidized LDL
Test: Vascular endothelium-dependent relaxation response to acetylcholine in rat vessel cross-sections damaged by oxidized LDL
Format: cell-based
Conditions: for ACh concentration at which the relaxation degree of 50% was achieved: 30 min perfusion, then oxidized LDL 100 μg/mL for 60 min, sections contracted with 5 μM phenylephrine
Description: The ability of a compound of the present invention to ameliorate the vascular tone-regulating function of vascular endothelium was evaluated by assaying vascular endothelium-dependent relaxation response to acetylcholine in the presence of a compound of the present invention using cross-section samples of rat vessels damaged by oxidized low-density lipoprotein (oxidized LDL).
Oxidized LDL is a substance derived from an endogenous low-density lipoprotein (LDL) via a exposure to a oxidative stress, and has been reported to be involved in the mechanism by which vascular endothelial cells are damaged (Tanner F C, Noll G, Boulanger C M, Luscher T F, Oxidized low density lipoproteins inhibit relaxations of porcine coronary arteries. Role of scavenger receptor and endothelium-derived nitric oxide. Circulation. 1991, 83:2012-20). The oxidized LDL used in this test was prepared by incubating rabbit LDL suspended at 200 μg/mL in phosphate buffered physiological saline (PBS) prepared by the method of Havel et al. (Havel R. J. et al., J. Clin. Invest., 34, 1345 (1955)) with 5 μM CuSO4 at 37° C. for 24 hours.
First, the mesenteric artery was collected from a rat euthanized by carbon dioxide inhalation into Krebs buffer (containing 118.0 mM NaCl, 4.7 mM KCl, 25.0 mM NaCO3, […] CaCl, 1.5 mM MgSO4 and 10 mM glucose), and the artery was cut into 2 mm wide annular cross sections. Then, the sections were suspended in a Magnus bath where they were equilibrated under a tension of 3 mN for 60 minutes. After equilibration, the sections were contracted with a 5 μM phenylephrine solution in Krebs buffer.
After confirming that a stable contraction was achieved, the perfusion solution was replaced with Krebs buffer containing 20 μM each of test compounds. The test compounds were the compound of the present invention, 4,6-di-t-butyl-5-hydroxy-2,2-di-n-pentyl-2,3-dihydrobenzofuran, and comparative compounds, probucol and α-tocopherol. Probucol is a compound reported to ameliorate the vascular tone-regulating function of vascular endothelium by preventing the decrease of the EDRF-secreting ability of vascular endothelial cells. α-tocopherol is a fat-soluble endogenous antioxidant known to inhibit the oxidation of LDL.
After perfusion for 30 minutes, oxidized LDL was added to a concentration of 100 μg/mL. After equilibration in the perfusion solution containing oxidized LDL for 60 minutes, acetylcholine (ACh) was cumulatively added at concentrations from 1×10^−10 M to 1×10^−5 M. At equally spaced ACh concentrations, the length of each section was measured to calculate the degree of relaxation (%) by dividing the difference between the lengths of the section before and after relaxation by the length before relaxation. This relaxation is a phenomenon resulting from the acetylcholine-induced secretion of EDRF from vascular endothelial cells.
In addition to the experiment described above, a similar experiment was performed except that the perfusion in Krebs buffer containing test compounds and the equilibration with oxidized LDL were omitted (control experiment) or except that the perfusion in Krebs buffer containing test compounds was omitted but the equilibration with oxidized LDL was included (oxidized LDL experiment).
The procedure of test example 1 was followed except that the concentration of the test compound was increased from 20 μM to 50 μM.

[1] = 20 μM test compound, compared with the oxidized LDL experiment, FIG. 1

SMILES | ACh concentration at which the relaxation degree of 50% was achieved (20 μM test compound, FIG. 1) [nM] | Ameliorating effect on the vascular tone-regulating function of vascular endothelium damaged by oxidized LDL [1] | Ameliorating effect on the vascular tone-regulating function of vascular endothelium damaged by oxidized LDL (50 μM test compound, compared with the control, FIG. 2)
CCCCCC1(CCCCC)Cc2c(cc(C(C)(C)C)c(O)c2C(C)(C)C)O1 [compound of the present invention, 4,6-di-t-butyl-5-hydroxy-2,2-di-n-pentyl-2,3-dihydrobenzofuran] | 126 | ameliorated the vascular tone-regulating function of vascular endothelium | adverse influence of oxidized LDL-induced damages to vascular endothelial cells on the vascular tone-regulating function was completely removed
CC(C)(Sc1cc(C(C)(C)C)c(O)c(C(C)(C)C)c1)Sc1cc(C(C)(C)C)c(O)c(C(C)(C)C)c1 [probucol] | 121 |  | 
Cc1c(C)c2c(c(C)c1O)CC[C@@](C)(CCC[C@H](C)CCC[C@H](C)CCCC(C)C)O2 [α-tocopherol] | 261 | does not ameliorate the vascular tone-regulating function of vascular endothelium | 
